Source: US12612387B2, “RAS inhibitors and methods of using the same” (Jazz Pharmaceuticals Ireland Limited, priority 2020, dated 2026)

Experiments:
K-RAS G12C = biological target: T1, K-RAS G12C (Homo sapiens, UniProt P01116, G12C); test: Compound depletion assay, K-RAS G12C; format: binding; conditions: G12C protein 20 μM, compound 8 μM, 25° C.
T1 construct: His tag; purchased Stratech
Description: (§1) Compound Depletion Assay Method
(§2) Lyophilized human K-RAS (12 Cys) protein (His tag) and human K-RAS (12 Asp) protein (His tag) were purchased from Stratech and reconstituted at 30 μM in water. The protein concentration of K-RAS G12C and K-RAS G12D was adjusted to 20 μM in K-RAS Assay Buffer (20 mM HEPES pH 7.5, 150 mM NaCl, 1 mM MgCl2). A 49 μl aliquot of protein solution was transferred to 1.5 ml eppendorfs and incubated at room temperature for 10 minutes. A 1 μl aliquot of compound solution in DMSO was added to the protein solutions in the 1.5 ml eppendorfs to initiate the reaction, with a final assay compound concentration of 8 μM. Reactions were agitated at 25° C., 700 rpm. At each time point (0, 30, 180, 360, 1440 minutes), 10 μl of the reaction mixture was removed, added to 30 μl quench solution (0.3% formic acid, 75 nM propranolol in acetonitrile) to stop the reaction and stored at 4° C. Once all reactions were quenched, the samples were centrifuged at 16000 g for 10 minutes to pellet the protein and salts. A 10 μl aliquot of supernatant containing compound was diluted in 50:50 acetonitrile:H2O in a 96 well plate. The plates were heat sealed and the samples analysed by LC-MS/MS to determine the concentration of compound remaining in the samples. To determine the reaction progress, the compound signal was normalized to the internal standard signal (propranolol). The decrease in free compound concentration is shown as a percentage over time, with the […] at time zero fixed at one hundred percent. Compound is assumed to be completely depleted when no longer detectable with a double blank sample as reference.

K-RAS G12D = biological target: T2, K-RAS G12D (Homo sapiens, UniProt P01116, G12D); test: Compound depletion assay, K-RAS G12D; format: binding; conditions: G12D protein 20 μM, compound 8 μM, 25° C.
T2 construct: His tag; purchased Stratech
Description: as §1, §2

T2 sequence (P01116 1-188 isoform P01116-2 G12D): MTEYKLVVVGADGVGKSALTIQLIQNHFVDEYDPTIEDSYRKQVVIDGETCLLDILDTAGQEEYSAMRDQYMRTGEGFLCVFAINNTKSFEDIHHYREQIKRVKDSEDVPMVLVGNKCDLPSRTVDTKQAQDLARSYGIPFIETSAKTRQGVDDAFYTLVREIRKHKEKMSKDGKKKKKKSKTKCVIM
T1 sequence (P01116 1-188 isoform P01116-2 G12C): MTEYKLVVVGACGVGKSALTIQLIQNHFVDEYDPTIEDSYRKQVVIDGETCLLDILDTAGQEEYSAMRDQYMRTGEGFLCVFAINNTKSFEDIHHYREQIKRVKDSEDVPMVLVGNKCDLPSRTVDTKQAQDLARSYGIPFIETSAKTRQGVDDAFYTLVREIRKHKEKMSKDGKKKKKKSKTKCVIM

| SMILES | 30 min Category (compound remaining at timepoint) (K-RAS G12C) | 3 hr Category (compound remaining at timepoint) (K-RAS G12C) | 6 hr Category (compound remaining at timepoint) (K-RAS G12C) | 30 min Category (compound remaining at timepoint) (K-RAS G12D) | 3 hr Category (compound remaining at timepoint) (K-RAS G12D) | 6 hr Category (compound remaining at timepoint) (K-RAS G12D) | 24 hr Category (compound remaining at timepoint) (K-RAS G12C) | 24 hr Category (compound remaining at timepoint) (K-RAS G12D) |
| --- | --- | --- | --- | --- | --- | --- | --- | --- |
| C=CC(=O)N1CCN(c2cc(C(=O)Nc3cc(O)cc4ccccc34)nc(NCc3cnn(C)c3)n2)C[C@@H]1CC#N [Example 36, 6-[(3S)-3-(cyanomethyl)-4-prop-2-enoyl-piperazin-1-yl]-N-(3-hydroxy-1-naphthyl)-2-[(1-methylpyrazol-4-yl)methylamino]pyrimidine-4-carboxamide] | A (≥70% compound remaining at timepoint) | A (≥70% compound remaining at timepoint) | B (30%-70% compound remaining at timepoint) | A (≥70% compound remaining at timepoint) | A (≥70% compound remaining at timepoint) | A (≥70% compound remaining at timepoint) | – | – |
| C=CC(=O)N1CCN(c2cc(C(=O)Nc3cc(O)cc4ccccc34)nc(NCC3CCCN3C)n2)C[C@@H]1CC#N (stereo partly drawn) [Example 45, 6-[(3S)-3-(cyanomethyl)-4-prop-2-enoyl-piperazin-1-yl]-N-(3-hydroxy-1-naphthyl)-2-[(1-methylpyrrolidin-2-yl)methylamino]pyrimidine-4-carboxamide] | B (30%-70% compound remaining at timepoint) | C (≤30% compound remaining at timepoint) | C (≤30% compound remaining at timepoint) | A (≥70% compound remaining at timepoint) | A (≥70% compound remaining at timepoint) | A (≥70% compound remaining at timepoint) | – | – |
| C=CC(=O)N1CCN(c2cc(C(=O)Nc3cccc4[nH]ncc34)nc(OC[C@@H]3CCCN3C)n2)CC1 [Example 22, N-(1H-indazol-4-yl)-2-[[(2S)-1-methylpyrrolidin-2-yl]methoxy]-6-(4-prop-2-enoylpiperazin-1-yl)pyrimidine-4-carboxamide] | – | A (≥70% compound remaining at timepoint) | – | – | A (≥70% compound remaining at timepoint) | – | A (≥70% compound remaining at timepoint) | A (≥70% compound remaining at timepoint) |
| C=CC(=O)N1CCN(c2cc(C(=O)Nc3cc(O)cc4ccccc34)nc(OC[C@H]3CCCN3C)n2)C[C@@H]1CC#N [Example 34, 6-[(3S)-3-(cyanomethyl)-4-prop-2-enoyl-piperazin-1-yl]-N-(3-hydroxy-1-naphthyl)-2-[[(2R)-1-methylpyrrolidin-2-yl]methoxy]pyrimidine-4-carboxamide] | B (30%-70% compound remaining at timepoint) | C (≤30% compound remaining at timepoint) | C (≤30% compound remaining at timepoint) | A (≥70% compound remaining at timepoint) | A (≥70% compound remaining at timepoint) | A (≥70% compound remaining at timepoint) | – | – |
| C=CC(=O)N1CCN(c2cc(C(=O)Nc3cc(O)cc4ccccc34)nc(NCCN3CCOCC3)n2)C[C@@H]1CC#N [Example 28, 6-[(3S)-3-(cyanomethyl)-4-prop-2-enoyl-piperazin-1-yl]-N-(3-hydroxy-1-naphthyl)-2-(2-morpholinoethylamino)pyrimidine-4-carboxamide] | A (≥70% compound remaining at timepoint) | A (≥70% compound remaining at timepoint) | B (30%-70% compound remaining at timepoint) | A (≥70% compound remaining at timepoint) | A (≥70% compound remaining at timepoint) | A (≥70% compound remaining at timepoint) | – | – |
| C=CC(=O)N1CCN(c2cc(C(=O)Nc3cccc4ccccc34)nc(-c3cnn(C)c3)n2)CC1 [Example 10, 2-(1-methylpyrazol-4-yl)-N-(1-naphthyl)-6-(4-prop-2-enoylpiperazin-1-yl)pyrimidine-4-carboxamide] | – | A (≥70% compound remaining at timepoint) | – | – | A (≥70% compound remaining at timepoint) | – | A (≥70% compound remaining at timepoint) | A (≥70% compound remaining at timepoint) |
| C=CC(=O)N1CCN(c2cc(C(=O)Nc3cc(O)cc4ccccc34)nc(OCc3ccnn3C)n2)C[C@@H]1CC#N [Example 35, 6-[(3S)-3-(cyanomethyl)-4-prop-2-enoyl-piperazin-1-yl]-N-(3-hydroxy-1-naphthyl)-2-[(2-methylpyrazol-3-yl)methoxy]pyrimidine-4-carboxamide] | B (30%-70% compound remaining at timepoint) | C (≤30% compound remaining at timepoint) | C (≤30% compound remaining at timepoint) | A (≥70% compound remaining at timepoint) | A (≥70% compound remaining at timepoint) | A (≥70% compound remaining at timepoint) | – | – |
| C=CC(=O)N1CCN(c2cc(C(=O)Nc3cc(O)cc4ccccc34)nc(OCc3cnn(C)c3)n2)C[C@@H]1CC#N [Example 42, 6-[(3S)-3-(cyanomethyl)-4-prop-2-enoyl-piperazin-1-yl]-N-(3-hydroxy-1-naphthyl)-2-[(1-methylpyrazol-4-yl)methoxy]pyrimidine-4-carboxamide] | B (30%-70% compound remaining at timepoint) | C (≤30% compound remaining at timepoint) | C (≤30% compound remaining at timepoint) | A (≥70% compound remaining at timepoint) | A (≥70% compound remaining at timepoint) | A (≥70% compound remaining at timepoint) | – | – |
| C=CC(=O)N1CCN(c2cc(C(=O)Nc3cc(O)cc4ccccc34)nc(NCC3CCCCN3C)n2)C[C@@H]1CC#N (stereo partly drawn) [Example 49, 6-[(3S)-3-(cyanomethyl)-4-prop-2-enoyl-piperazin-1-yl]-N-(3-hydroxy-1-naphthyl)-2-[(1-methyl-2-piperidyl)methylamino]pyrimidine-4-carboxamide] | B (30%-70% compound remaining at timepoint) | C (≤30% compound remaining at timepoint) | C (≤30% compound remaining at timepoint) | A (≥70% compound remaining at timepoint) | A (≥70% compound remaining at timepoint) | A (≥70% compound remaining at timepoint) | – | – |
| C=CC(=O)N1CCN(c2cc(C(=O)Nc3cc(O)cc4ccccc34)nc(OCCC3CCCN3C)n2)C[C@@H]1CC#N (stereo partly drawn) [Example 47, 6-[(3S)-3-(cyanomethyl)-4-prop-2-enoyl-piperazin-1-yl]-N-(3-hydroxy-1-naphthyl)-2-[2-(1-methylpyrrolidin-2-yl)ethoxy]pyrimidine-4-carboxamide] | C (≤30% compound remaining at timepoint) | C (≤30% compound remaining at timepoint) | C (≤30% compound remaining at timepoint) | A (≥70% compound remaining at timepoint) | A (≥70% compound remaining at timepoint) | A (≥70% compound remaining at timepoint) | – | – |
